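The compound was tested at five concentrations on cells cultured in 96-well plates, with a 48-hour exposure period. GI50 marks 50% less growth. TGI denotes the concentration required for complete inhibition of growth.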
Tests used:
Test in all cases: NCI tumour cell line growth inhibition, 48 h
SR leukemia = test system: SR leukemia
KM12 colon = test system: KM12 colon
SK-MEL-28 melanoma = test system: SK-MEL-28 melanoma
CCRF-CEM leukemia = test system: CCRF-CEM leukemia
SNB-19 CNS = test system: SNB-19 CNS
RPMI-8226 leukemia = test system: RPMI-8226 leukemia
NCI-H23 lung = test system: NCI-H23 lung
SF-268 CNS = test system: SF-268 CNS
DU-145 prostate = test system: DU-145 prostate
COLO 205 colon = test system: COLO 205 colon
MOLT-4 leukemia = test system: MOLT-4 leukemia
T-47D breast = test system: T-47D breast
UACC-257 melanoma = test system: UACC-257 melanoma
NCI-H460 lung = test system: NCI-H460 lung
SF-539 CNS = test system: SF-539 CNS
NCI-H522 lung = test system: NCI-H522 lung
SK-OV-3 ovarian = test system: SK-OV-3 ovarian
A498 renal = test system: A498 renal
SF-295 CNS = test system: SF-295 CNS
IGROV1 ovarian = test system: IGROV1 ovarian
HL-60(TB) leukemia = test system: HL-60(TB) leukemia
HCC-2998 colon = test system: HCC-2998 colon
SK-MEL-5 melanoma = test system: SK-MEL-5 melanoma
UACC-62 melanoma = test system: UACC-62 melanoma
OVCAR-5 ovarian = test system: OVCAR-5 ovarian
M14 melanoma = test system: M14 melanoma
ACHN renal = test system: ACHN renal
A549 NSCLC = test system: A549 NSCLC
K-562 leukemia = test system: K-562 leukemia
786-0 renal = test system: 786-0 renal
CAKI-1 renal = test system: CAKI-1 renal
HOP-62 NSCLC = test system: HOP-62 NSCLC
HCT-15 colon = test system: HCT-15 colon
HT29 colon = test system: HT29 colon
TK-10 renal = test system: TK-10 renal
SW-620 colon = test system: SW-620 colon
MDA-MB-468 breast = test system: MDA-MB-468 breast
OVCAR-3 ovarian = test system: OVCAR-3 ovarian
PC-3 prostate = test system: PC-3 prostate
OVCAR-8 ovarian = test system: OVCAR-8 ovarian
NCI-H226 lung = test system: NCI-H226 lung
HS 578T breast = test system: HS 578T breast
HCT-116 colon = test system: HCT-116 colon
MCF7 breast = test system: MCF7 breast
MALME-3M melanoma = test system: MALME-3M melanoma
MDA-MB-435 = test system: MDA-MB-435
OVCAR-4 ovarian = test system: OVCAR-4 ovarian
RXF 393 renal = test system: RXF 393 renal
NCI/ADR-RES ovarian = test system: NCI/ADR-RES ovarian
BT-549 breast = test system: BT-549 breast
LOX IMVI melanoma = test system: LOX IMVI melanoma
U251 CNS = test system: U251 CNS
HOP-92 NSCLC = test system: HOP-92 NSCLC
EKVX NSCLC = test system: EKVX NSCLC
SN12C renal = test system: SN12C renal

SMILES: O=C(Nc1nc2ccc([N+](=O)[O-])cc2s1)Nc1cc(Cl)ccc1I
- GI50 (SR leukemia): 3.16 µM
- TGI (SR leukemia): 12.4 µM
- GI50 (KM12 colon): 5.29 µM
- TGI (KM12 colon): 17.7 µM
- GI50 (SK-MEL-28 melanoma): 4.75 µM
- TGI (SK-MEL-28 melanoma): 16.6 µM
- GI50 (CCRF-CEM leukemia): 3.4 µM
- TGI (CCRF-CEM leukemia): 12.4 µM
- GI50 (SNB-19 CNS): 5.5 µM
- TGI (SNB-19 CNS): 18.1 µM
- GI50 (RPMI-8226 leukemia): 2.24 µM
- TGI (RPMI-8226 leukemia): 5.66 µM
- GI50 (NCI-H23 lung): 2.78 µM
- TGI (NCI-H23 lung): 8.9 µM
- GI50 (SF-268 CNS): 9.35 µM
- TGI (SF-268 CNS): 23.9 µM
- GI50 (DU-145 prostate): 8.17 µM
- TGI (DU-145 prostate): 20.6 µM
- GI50 (COLO 205 colon): 10.8 µM
- TGI (COLO 205 colon): 22.9 µM
- GI50 (MOLT-4 leukemia): 3.43 µM
- TGI (MOLT-4 leukemia): 12 µM
- GI50 (T-47D breast): 3.7 µM
- TGI (T-47D breast): 14.5 µM
- GI50 (UACC-257 melanoma): 6.8 µM
- TGI (UACC-257 melanoma): 19.9 µM
- GI50 (NCI-H460 lung): 4.16 µM
- TGI (NCI-H460 lung): 15.7 µM
- GI50 (SF-539 CNS): 5.09 µM
- TGI (SF-539 CNS): 17 µM
- GI50 (NCI-H522 lung): 2.95 µM
- TGI (NCI-H522 lung): 10.6 µM
- GI50 (SK-OV-3 ovarian): 7.84 µM
- TGI (SK-OV-3 ovarian): 20.4 µM
- GI50 (A498 renal): 4.25 µM
- TGI (A498 renal): 16.1 µM
- GI50 (SF-295 CNS): 5.56 µM
- TGI (SF-295 CNS): 18.6 µM
- GI50 (IGROV1 ovarian): 4.49 µM
- TGI (IGROV1 ovarian): 15.8 µM
- GI50 (HL-60(TB) leukemia): 3.81 µM
- TGI (HL-60(TB) leukemia): 16.8 µM
- GI50 (HCC-2998 colon): 4.7 µM
- TGI (HCC-2998 colon): 16.2 µM
- GI50 (SK-MEL-5 melanoma): 2.7 µM
- TGI (SK-MEL-5 melanoma): 7.52 µM
- GI50 (UACC-62 melanoma): 4.11 µM
- TGI (UACC-62 melanoma): 15.4 µM
- GI50 (OVCAR-5 ovarian): 11.6 µM
- TGI (OVCAR-5 ovarian): 23.9 µM
- GI50 (M14 melanoma): 10 µM
- TGI (M14 melanoma): 22 µM
- GI50 (ACHN renal): 5.29 µM
- TGI (ACHN renal): 17.4 µM
- GI50 (A549 NSCLC): 9.8 µM
- TGI (A549 NSCLC): 21.6 µM
- GI50 (K-562 leukemia): 3.55 µM
- TGI (K-562 leukemia): 13.6 µM
- GI50 (786-0 renal): 7.32 µM
- TGI (786-0 renal): 20.2 µM
- GI50 (CAKI-1 renal): 5.87 µM
- TGI (CAKI-1 renal): 19.3 µM
- GI50 (HOP-62 NSCLC): 9.29 µM
- TGI (HOP-62 NSCLC): 21.7 µM
- GI50 (HCT-15 colon): 4.04 µM
- TGI (HCT-15 colon): 15.6 µM
- GI50 (HT29 colon): 11.4 µM
- TGI (HT29 colon): 24.2 µM
- GI50 (TK-10 renal): 8.2 µM
- TGI (TK-10 renal): 20.7 µM
- GI50 (SW-620 colon): 5.46 µM
- TGI (SW-620 colon): 18.6 µM
- GI50 (MDA-MB-468 breast): 3.54 µM
- TGI (MDA-MB-468 breast): 10.6 µM
- GI50 (OVCAR-3 ovarian): 4.29 µM
- TGI (OVCAR-3 ovarian): 14.8 µM
- GI50 (PC-3 prostate): 3.78 µM
- TGI (PC-3 prostate): 13.5 µM
- GI50 (OVCAR-8 ovarian): 12.9 µM
- TGI (OVCAR-8 ovarian): 26.7 µM
- GI50 (NCI-H226 lung): 7.18 µM
- TGI (NCI-H226 lung): 20.5 µM
- GI50 (HS 578T breast): 4.71 µM
- TGI (HS 578T breast): 20.8 µM
- GI50 (HCT-116 colon): 3.24 µM
- TGI (HCT-116 colon): 12 µM
- GI50 (MCF7 breast): 3.05 µM
- TGI (MCF7 breast): 12.1 µM
- GI50 (MALME-3M melanoma): 3.26 µM
- TGI (MALME-3M melanoma): 13.1 µM
- GI50 (MDA-MB-435): 6.4 µM
- TGI (MDA-MB-435): 21 µM
- GI50 (OVCAR-4 ovarian): 5.28 µM
- TGI (OVCAR-4 ovarian): 19.3 µM
- GI50 (RXF 393 renal): 7.38 µM
- TGI (RXF 393 renal): 20.3 µM
- GI50 (NCI/ADR-RES ovarian): 4.85 µM
- TGI (NCI/ADR-RES ovarian): 18.1 µM
- GI50 (BT-549 breast): 3.56 µM
- TGI (BT-549 breast): 14.5 µM
- GI50 (LOX IMVI melanoma): 5.85 µM
- TGI (LOX IMVI melanoma): 18.1 µM
- GI50 (U251 CNS): 5.36 µM
- TGI (U251 CNS): 17.8 µM
- GI50 (HOP-92 NSCLC): 2.63 µM
- TGI (HOP-92 NSCLC): 7.46 µM
- GI50 (EKVX NSCLC): 3.6 µM
- TGI (EKVX NSCLC): 13.6 µM
- GI50 (SN12C renal): 4.06 µM
- TGI (SN12C renal): 15.8 µM
